Assay results published in patent publication US8865626B2, “Synergistically active herbicidal agents that are compatible with cultivated plants and contain herbicides from the group of benzoylpyrazoles” (Bayer Cropscience AG, priority 2006, dated 2014).

What was measured:
Format in all cases: in vivo
STEME = test: Herbicidal post-emergence action against STEME; conditions: visual rating 3 to 4 weeks after treatment
Protocol: (§1) Seeds of monocotyledonous and dicotyledonous weed and crop plants are placed into sandy loam in wood fiber pots or in plastic pots, covered with soil and cultivated in a greenhouse, including during the vegetation period outdoors outside of the greenhouse, under good growth conditions. 2-3 weeks after sowing, the test plants are treated at the one- to three-leaf stage. The test compounds, formulated as wettable powders (WP) or liquid (EC) are, in various dosages with a water application rate of 300 I/ha (converted), with added wetting agent (0.2 to 0.3%), sprayed onto the plants and the surface of the soil. 3 to 4 weeks after the treatment of the test plants, the effect of the preparations is rated visually in comparison to untreated controls (herbicidal effect in percent (%): 100% effect=plants have died, 0% effect=like control plants).
(§2) If it is additionally to be tested as to whether safeners can improve the plant compatibility of test substances in the case of crop plants, the following options are used for applying the safener: • seeds of the crop plants are, before sowing, dressed with the safener substance (the amount of safener is stated in percent, based on the weight of the seed) • before the application of the test substances, the crop plants are sprayed with the safener at a certain application rate per hectare (usually 1 day before the application of the test substances) • the safener is applied together with the test substance as a tank mix (the amount of safener is stated in g/ha or as a ratio, based on the herbicide).
(§3) By comparing the effect of the test substances on crop plants without or with safener treatment, it is possible to assess the effect of the safener substance.

LAMPU = test: Herbicidal post-emergence action against LAMPU; conditions: visual rating 3 to 4 weeks after treatment
Protocol: as §1, §3

AVEFA = test: Herbicidal post-emergence action against AVEFA; conditions: visual rating 3 to 4 weeks after treatment
Protocol: as §1, §3

MATIN = test: Herbicidal post-emergence action against MATIN; conditions: visual rating 3 to 4 weeks after treatment
Protocol: as §1, §2, §3

summer wheat = test: Post-emergence damage to crop plant (safener test)
Protocol: as §1, with “plants). […]” for “plants).”

VERHE = test: Herbicidal post-emergence action against VERHE; conditions: visual rating 3 to 4 weeks after treatment
Protocol: as §1, §3

## Nc1cc(Cl)nc(C(=O)O)c1Cl [aminopyralid]
STEME; dosage 150 g of a.i./ha
  Activity against STEME: 65%

## CCOC(=O)C(Cl)Cc1cc(-n2nc(C)n(C(F)F)c2=O)c(F)cc1Cl (centres unmarked) [carfentrazone-ethyl]
LAMPU; dosage 25 g of a.i./ha
  Activity against LAMPU: 10%

## COCc1cnc(C2=NC(C)(C(C)C)C(=O)N2)c(C(=O)O)c1.N (centres unmarked) [imazamox-ammonium]
AVEFA; dosage 25 g of a.i./ha
  Activity against AVEFA: 60%

## CCOC(=O)C1=NN(c2ccc(Cl)cc2Cl)C(C)(C(=O)OCC)C1 (centres unmarked) [mefenpyr-diethyl]
MATIN; dosage 9.4 g of a.i./ha
  Activity against MATIN: 0%
STEME; dosage 9.4 g of a.i./ha
  Activity against STEME: 0%

## COC(=O)c1ccc(CNS(C)(=O)=O)cc1S(=O)(=O)NC(=O)Nc1nc(OC)cc(OC)n1 [mesosulfuron-methyl]
MATIN; dosage 7.5 g of a.i./ha
  Activity against MATIN: 50%
Summer wheat; dosage 7.5 g of a.i./ha
  Damage to summer wheat: 15%

## Cc1nn(C)c(O)c1C(=O)c1ccc(C(F)(F)F)cc1S(C)(=O)=O [pyrasulfotole]
MATIN; dosage 12.5 g of a.i./ha
  Activity against MATIN: 70%
VERHE; dosage 12.5 g of a.i./ha
  Activity against VERHE: 40%
LAMPU; dosage 12.5 g of a.i./ha
  Activity against LAMPU: 80%
Summer wheat; dosage 12.5 g of a.i./ha
  Damage to summer wheat: 20%
STEME; dosage 12.5 g of a.i./ha
  Activity against STEME: 60%
AVEFA; dosage 12.5 g of a.i./ha
  Activity against AVEFA: 40%

## COc1cc(OC)n2nc(NS(=O)(=O)c3c(C(F)(F)F)ccnc3OC)nc2n1 [pyroxsulam]
VERHE; dosage 5 g of a.i./ha
  Activity against VERHE: 80%
